Laboratory results from ChEMBL document CHEMBL5579856, “Stereospecific Synthesis and Biological Evaluation of KRN7000 Analogues with Thio-modifications at the Acyl Moiety” (2024).

What was measured:
Assay type in all cases: functional
Conditions in all cases: dose 200 µg/kg
[1] = test system: Mus musculus; assay: Induction of IFN-gamma secretion in male C57BL/6 mouse assessed as […] in serum at 200 ug/kg, iv measured after 16 hrs by ELISA (reference value: BLD)
[2] = test system: Mus musculus; assay: Induction of IL-4 secretion in male C57BL/6 mouse assessed as IL-4 level in serum at 200 ug/kg, iv measured after 4 hrs by ELISA (reference value: BLD)
[3] = test system: Mus musculus; assay: Induction of cytokine secretion in male C57BL/6 mouse assessed as ratio of IFN-gamma to IL-4 level in serum at 200 ug/kg, iv by ELISA

SMILES | Activity [1] [pg/mL] | Activity [2] [pg/mL] | Ratio [3]
CCCCCCCCCCCCCCCCCCCCCCCCCC(=O)N[C@@H](CO[C@H]1O[C@H](CO)[C@H](O)[C@H](O)[C@H]1O)[C@H](O)[C@H](O)CCCCCCCCCCCCCC [RGI-7000] | 3083.43 | 1077.7 | –
CCCCCCCCCCCCCC[C@@H](O)[C@@H](O)[C@H](CO[C@H]1O[C@H](CO)[C@H](O)[C@H](O)[C@H]1O)NC(=O)CCCCCCCCCCc1ccc(Oc2ccc(F)cc2)cc1 | 655.43 | 205.34 | 1.12
CCCCCCCCCCCCCC[C@@H](O)[C@@H](O)[C@H](CO[C@H]1O[C@H](CO)[C@H](O)[C@H](O)[C@H]1O)NC(=S)CCCCCCCCCCc1ccc(F)cc1 | 1610.18 | 276.98 | 2.03
CCCCCCCCCCCCCC[C@@H](O)[C@@H](O)[C@H](CO[C@H]1O[C@H](CO)[C@H](O)[C@H](O)[C@H]1O)NC(=S)CCCCCCCCCCc1ccc(Oc2ccc(F)cc2)cc1 | 571.16 | 125.69 | 1.59
CCCCCCCCCCCCCC[C@@H](O)[C@@H](O)[C@H](CO[C@H]1O[C@H](CO)[C@H](O)[C@H](O)[C@H]1O)NC(=O)CCCCCCCCCCc1ccc(F)cc1 | 2470.48 | 425.65 | 2.03
CCCCCCCCCCCCCC[C@@H](O)[C@@H](O)[C@H](CO[C@H]1O[C@H](CO)[C@H](O)[C@H](O)[C@H]1O)NC(=O)CCCCCCCCCCc1ccc(Sc2ccc(F)cc2)cc1 | 2100.52 | 324.56 | 2.26
CCCCCCCCCCCCCC[C@@H](O)[C@@H](O)[C@H](CO[C@H]1O[C@H](CO)[C@H](O)[C@H](O)[C@H]1O)NC(=S)CCCCCCCCCCc1ccc(Sc2ccc(F)cc2)cc1 | 1046.54 | 396.07 | 0.99
CCCCCCCCCCCCCCCCCCCCCCCCCC(=S)N[C@@H](CO[C@H]1O[C@H](CO)[C@H](O)[C@H](O)[C@H]1O)[C@H](O)[C@H](O)CCCCCCCCCCCCCC | 3291.25 | 951.79 | 1.21
